According to article PMC4279406, “Simultaneous targeting of PI3Kδ and a PI3Kδ-dependent MEK1/2-Erk1/2 pathway for therapy in pediatric B-cell acute lymphoblastic leukemia” (Oncotarget, 2014):

Assays:
[1] = system: PI3Kδ (M-CSF-stimulated THP-1 monocytes); experiment: M-CSF-induced Akt phosphorylation in THP-1 cells; type: cell-based; conditions: at 10 nM; M-CSF 50 ng/ml
Description: In fibroblasts, signals from the insulin-like growth factor 1 (IGF-1) receptor are mediated by PI3Kα, while lysophosphatidic acid (LPA) stimulates G-protein coupled receptor (GPCR) signals via PI3Kβ[26]. After being pre-incubated with X-370, murine embryonic fibroblasts cultured in serum-free medium were stimulated with IGF-1 or LPA. […] Either PI3Kδ or PI3Kγ can be activated in THP-1 monocytes dependent on the stimulating ligand, among which macrophage colony stimulating factor (M-CSF/CSF-1) activates RTK-coupled PI3Kδ, while monocyte chemoattractant protein-1 (MCP-1) activates PI3Kγ [24]. Accordingly, THP-1 cells cultured in serum-free medium were stimulated with MCP-1 or M-CSF in the presence of X-370 and phosphorylated Akt was measured.
Cell lysates were probed with indicated antibodies. The IC50 values were calculated based on relative band intensity measured with ImageQuant™ TL (GE Healthcare Life Sciences, Piscataway, NJ) (B). Data shown are mean values from three independent experiments. (C, D, E, F) X-370 blocked stimuli-triggered PI3Kδ activation. MEF cells and THP-1 were starved in serum-free medium for 12 h or 4 h respectively and X-370 were added for an additional 1 h treatment following stimulation of IGF-1 at 100 ng/ml for MEF cells (C), LPA at 10 μM for MEF cells (D), MCP-1 at 100ng/ml for THP-1 (E) and M-CSF at 50 ng/ml for THP-1 (F). […]

[2] = system: panel of 61 protein kinases; experiment: Panel of 61 protein kinases; type: biochemical, human; conditions: 10 μM
Description: Utilizing the crystal structure of PI3Kδ, we designed and synthesized a series of compounds in an effort to discover new potent and selective PI3Kδ inhibitors, which bind to PI3Kδ differently from CAL-101. […] The benzimidazole group of X-370 extends into the affinity pocket, where its nitrogen acts as a hydrogen bond acceptor for the primary amine of Lys779. The difluoromethyl group of X-370 points toward Pro758 in the hydrophobic affinity pocket. Instead of wedging between Met752 and Trp760, a binding mode utilized by CAL-101 to generate specificity against PI3Kδ (Figure S1), the pyrrole group of X-370 presses tightly against Trp760. These specific interactions of X-370 with p110δ confer a selective and potent inhibition of PI3Kδ. […]
In vitro kinase profile assays were analyzed by the Kinase Profiler Service (Millipore, United Kingdom) following its guidelines. […] The PI3K kinase activity was determined in the increasing concentration of ATP and X-370 with PI3-Kinase HTRF™ Assay kit (Millipore) as described previously. […]
Cell lysates were probed with indicated antibodies. The IC50 values were calculated based on relative band intensity measured with ImageQuant™ TL (GE Healthcare Life Sciences, Piscataway, NJ). […]

O=C(N1CCCC1)N1CCC(n2cnc3c(-n4c(C(F)F)nc5ccccc54)nc(N4CCOCC4)nc32)CC1 [X-370]
M-CSF-induced Akt phosphorylation [1]: completely blocked | activity against all kinases of the panel [2]: little activity
